The text below walks through data of US20080200473A1, “Imidazo [1,2-a]Pyridine Compounds, Compositions, Uses and Methods Thereto” (Ferrer Internacional, S.A., priority 2004, published 2008).

Experiment [1] deals with α1-GABAA receptor. In words: Ligand-binding assay, competitive with radiolabeled flumazenil, cerebellum membranes. The conditions noted are these: Affinity for α1-GABAA receptor, rat cerebellum membranes, radiolabeled flumazenil 1 nM; for % Inhibition 10^−5M: 10^-5M test compound; for % Inhibition 10^−7M: 10^-7M test compound. As to the method:
(§1) Ligand-binding assays. Determination of the affinity of test compounds for α1- and α2-GABAA receptor.
(§2) Male Sprague-Dawley rats weighing 200-250 g at the time of experiment were used. After decapitation of the animal, the cerebellum (tissue that mostly contains α1-GABAA receptor) and spinal cord (tissue that mostly contains α2-GABAA receptor) were removed. The membranes were prepared according to the method by J. Lameh et al. (Prog. Neuro-Psychopharmacol. Biol. Psychiatry, 24, 979-991, 2000) and H. Noguchi et al. (Eur. J. Pharm., 434, 21-28, 2002). Once the tissues weighed, they were suspended in 50 mM Tris.HCl (pH 7.4), 1:40 (w/v), or sucrose 0.32 M in the case of spinal cord, homogenized and then centrifuged at 20,000 g for 10 min at 7° C. twice. The resulting pellet was resuspended under the same conditions and centrifuged again. The pellet was finally resuspended on a minimum volume and kept at −80° C. overnight. On the next day, the process was repeated until the final pellet was resuspended at a ratio of 1:10 (w/v) in the case of cerebellum and at a ratio of 1:5 (w/v) in the case of spinal cord.
(§3) Affinity was determined by competitive tests using radiolabeled flumazenil as ligand. The tests were performed according to the methods described by S. Arbilla et al. (Eur. J. Pharmacol., 130, 257-263, 1986); and Y. Wu et al. (Eur. J. Pharmacol., 278, 125-132, 1995) using 96-well microtiter plates. The membranes containing the study receptors, flumazenil (radiolabeling at a final concentration of 1 nM) and ascending concentrations of test compounds (in a total volume of 230 μL in 50 mM [ph 7.4] Tris.HCl buffer) were incubated. Simultaneously, the membranes were only incubated with the radiolabeled flumazenil (total binding, 100%) and in the presence of an elevated concentration of unradiolabeled flumazenil (non-specific binding, % estimation of radiolabeled ligand). The reactions started on adding the radiolabeled ligand followed by incubation for 60 minutes at 4° C. At the end of the incubation period, 200 μL of reaction were transferred to a multiscreen plate (Millipore) and filtered using a vacuum manifold and then washed three times with cold test buffer. The multiscreen plates were equipped with a GF/B filter that retained the membranes containing the receptors and the radiolabeled ligand which has been bound to the receptors. After washing, the plates were left till dry. Once dried, scintillation liquid was added and left under stirring overnight. The next day the plates were counted using a Perkin-Elmer Microbeta scintillation counter.
(§4) For analysis of the results the percentage of specific binding for every concentration of test compound was calculated as follows:
(§5) % specific binding=(X−N/T−N)×100
(§6) where, X: amount of bound ligand for every concentration of compound. T: total binding, maximum amount bound to the radiolabeled ligand. N: non-specific binding, amount of radiolabeled ligand bound in a non-specific way irrespective of the receptor used.
(§7) Every concentrations of compound were tested in triplicate and their mean values were used to determine the experimental values of % specific binding versus the concentration of compound. Affinity data are expressed as % inhibition at 10^-5M and 10^-7M concentrations.

Experiment [2] concerns mice. In words: In vivo predictive sedation-hypnosis test (inhibition of traveled distance). The conditions noted are these: male CD1 mice; single equimolecular intraperitoneal doses; traveled distance over 30 min after dosing (first 5 min discarded) versus control. Also on record: species or system mouse. As to the method:
In vivo determination of predictive sedative-hypnotic action.
The in vivo effects of these compounds were assessed by a predictive sedation-hypnosis test in mice (D. J. Sanger et al., Eur. J. Pharmacol., 313, 35-42, 1996; and G. Griebel et al., Psychopharmacology, 146, 205-213, 1999).
Groups of 5-8 male CD1 mice, weighing 22-26 g at the time of test, were used. The test compounds were administered in single equimolecular intraperitoneal doses, suspended in 0.25% agar with one drop of Tween in a volume of 10 mL/kg. Control animals received the vehicle alone. Using a Smart System (Panlab, S. L., Spain) the traveled distance in cm is recorded for each mouse at 5-min intervals during a period of 30 minutes after dosing. The inhibition percentage of traveled distance of treated animals versus control animals (the first 5 min were discarded) was calculated.

The test system of experiment [3] is α2-GABAA receptor. In words: Ligand-binding assay, competitive with radiolabeled flumazenil, spinal cord membranes. The following applies: Affinity for α2-GABAA receptor, rat spinal cord membranes, radiolabeled flumazenil 1 nM; for % Inhibition 10^−5M: 10^-5M test compound; for % Inhibition 10^−7M: 10^-7M test compound. As to the method:
as §1, §2, §3, §4, §5, §6, §7

As to `Cc1ccc(-c2nc3ccc(C)cn3c2CC(=O)N(C)C)cc1` [Zolpidem, reference compound], the “% Inhibition 10^−5M” value stood at 94.4% in experiment [1] and 78.2% in experiment [3]. Further, the “% Inhibition 10^−7M” value was determined as 73.6% in experiment [1] and 20.1% in experiment [3]. Moreover, the “% Inhibition Motor Activity” value in experiment [2] was 90.80%.

Consider `COc1ccc(C(=O)N(C)Cc2c(-c3ccc(C)cc3)nc3ccc(C)cn23)cc1` [Example 25, 4-Methoxy-N-methyl-N-(6-methyl-2-p-tolyl-imidazo[1,2-a]pyridin-3-ylmethyl)-benzamide], for which, in experiment [1], the “% Inhibition 10^−5M” value was 91.9% and the “% Inhibition 10^−7M” value is 26.6%. In experiment [2], the “% Inhibition Motor Activity” value is on record as 67.34%. For the same molecule, in experiment [3], the “% Inhibition 10^−5M” value came out at 0.0% and the “% Inhibition 10^−7M” value is 0.0%.

As to `Cc1ccc(-c2nc3ccc(C)cn3c2CN(C)C(=O)c2cscn2)cc1` [Example 94, Thiazole-4-carboxylic acid methyl-(6-methyl-2-p-tolyl-imidazo[1,2-a]pyridin-3-ylmethyl)-amide], in experiment [1], the “% Inhibition 10^−5M” value was 99.5% and the “% Inhibition 10^−7M” value stood at 78.5%. Moreover, the “% Inhibition Motor Activity” value in experiment [2] was 89.33%. In experiment [3], the “% Inhibition 10^−5M” value turned out to be 94.5% and the “% Inhibition 10^−7M” value amounted to 33.2%.

For `Cc1ccc(-c2nc3ccc(C)cn3c2CN(C)C(=O)c2ccc([N+](=O)[O-])o2)cc1` [Example 32, 5-Nitro-furan-2-carboxylic acid methyl-(6-methyl-2-p-tolyl-imidazo[1,2-a]pyridin-3-ylmethyl)-amide], in experiment [1], the “% Inhibition 10^−5M” value worked out at 98.0% and the “% Inhibition 10^−7M” value is recorded as 14.5%. The “% Inhibition Motor Activity” value in experiment [2] is 92.66%. In experiment [3], the “% Inhibition 10^−5M” value is 77.5% and the “% Inhibition 10^−7M” value worked out at 0.0%.

In the case of `Cc1ccc(-c2nc3ccc(C)cn3c2CN(C)C(=O)c2cccs2)cc1` [Example 29, Thiophene-2-carboxylic acid methyl-(6-methyl-2-p-tolyl-imidazo[1,2-a]pyridin-3-ylmethyl)-amide], the figures for the “% Inhibition 10^−5M” value in experiment [1] and in experiment [3] were 99.7% and 90.2%, respectively. The entries for the “% Inhibition 10^−7M” value in experiment [1] and in experiment [3] were 84.9% and 25.0%, respectively. The “% Inhibition Motor Activity” value in experiment [2] was 93.98%.

As to `Cc1ccc(-c2nc3ccc(C)cn3c2CNC(=O)c2csnn2)cc1` [Example 70, [1,2,3]Thiadiazole-4-carboxylic acid (6-methyl-2-p-tolyl-imidazo[1,2-a]pyridin-3-ylmethyl)-amide], the “% Inhibition 10^−5M” value in experiment [1] was determined as 100.4%; in experiment [3], 97.7%. In addition, the results for the “% Inhibition 10^−7M” value in experiment [1] and in experiment [3] were 79.7% and 25.6%, respectively. Also, in experiment [2], the “% Inhibition Motor Activity” value was 90.77%.

Consider `Cc1ccc(-c2nc3ccc(C)cn3c2CNC(=O)c2nccn2C)cc1` [Example 78, 1-Methyl-1H-imidazole-2-carboxylic acid (6-methyl-2-p-tolyl-imidazo[1,2-a]pyridin-3-ylmethyl)-amide], for which, in experiment [1], the “% Inhibition 10^−5M” value is 100.2% and the “% Inhibition 10^−7M” value worked out at 97.9%. Further, the “% Inhibition Motor Activity” value in experiment [2] is reported as 88.10%. Also, in experiment [3], the “% Inhibition 10^−5M” value is 98.8% and the “% Inhibition 10^−7M” value stood at 85.9%.

Regarding `Cc1ccc(-c2nc3ccc(C)cn3c2CNC(=O)c2c(C)noc2C)cc1` [Example 90, 3,5-Dimethyl-isoxazole-4-carboxylic acid (6-methyl-2-p-tolyl-imidazo[1,2-a]pyridin-3-ylmethyl)-amide], in experiment [1], the “% Inhibition 10^−5M” value stood at 84.5% and the “% Inhibition 10^−7M” value turned out to be 0.0%. Further, the “% Inhibition Motor Activity” value in experiment [2] is recorded as 82.12%. Moreover, in experiment [3], the “% Inhibition 10^−5M” value is listed as 31.8% and the “% Inhibition 10^−7M” value was determined as 0.0%.

For `Cc1ccc(-c2nc3ccc(C)cn3c2CNC(=O)c2sccc2C)cc1` [Example 16, 3-Methyl-thiophene-2-carboxylic acid (6-methyl-2-p-tolyl-imidazo[1,2-a]pyridin-3-ylmethyl)-amide], in experiment [1], the “% Inhibition 10^−5M” value is on record as 95.4% and the “% Inhibition 10^−7M” value came out at 2.2%. The “% Inhibition Motor Activity” value in experiment [2] is 82.38%. Moreover, in experiment [3], the “% Inhibition 10^−5M” value is 52.9% and the “% Inhibition 10^−7M” value amounted to 0.0%.

For `Cc1ccc(-c2nc3ccc(C)cn3c2CN(C)C(=O)C2CC2)cc1` [Example 24, Cyclopropanecarboxylic acid methyl-(6-methyl-2-p-tolyl-imidazo[1,2-a]pyridin-3-ylmethyl)-amide], in experiment [1], the “% Inhibition 10^−5M” value was 99.8% and the “% Inhibition 10^−7M” value is 75.2%. The “% Inhibition Motor Activity” value in experiment [2] is listed as 80.71%. Moreover, in experiment [3], the “% Inhibition 10^−5M” value was found to be 14.4% and the “% Inhibition 10^−7M” value was 0.0%.

For `Cc1ccc(-c2nc3ccc(C)cn3c2CNC(=O)c2cc(C)n(C)n2)cc1` [Example 67, 1,5-Dimethyl-1H-pyrazole-3-carboxylic acid (6-methyl-2-p-tolyl-imidazo[1,2-a]pyridin-3-ylmethyl)-amide], in experiment [1], the “% Inhibition 10^−5M” value is reported as 99.6% and the “% Inhibition 10^−7M” value is reported as 84.7%. Besides, the “% Inhibition Motor Activity” value in experiment [2] is 78.09%. Further, in experiment [3], the “% Inhibition 10^−5M” value worked out at 96.6% and the “% Inhibition 10^−7M” value was found to be 47.3%.

For `Cc1ccc(-c2nc3ccc(C)cn3c2CNC(=O)c2ccc3ccccc3n2)cc1` [Example 19, Quinoline-2-carboxylic acid (6-methyl-2-p-tolyl-imidazo[1,2-a]pyridin-3-ylmethyl)-amide], in experiment [1], the “% Inhibition 10^−5M” value was 95.5% and the “% Inhibition 10^−7M” value amounted to 0.0%. Further, in experiment [2], the “% Inhibition Motor Activity” value is 47.98%. Further, in experiment [3], the “% Inhibition 10^−5M” value is given as 47.6% and the “% Inhibition 10^−7M” value is 0.0%.

In the case of `CC(=O)c1ccc(C(=O)NCc2c(-c3ccc(C)cc3)nc3ccc(C)cn23)cc1` [Example 12, 4-Acetyl-N-(6-methyl-2-p-tolyl-imidazo[1,2-a]pyridin-3-ylmethyl)-benzamide], in experiment [1], the “% Inhibition 10^−5M” value came to 73.7% and the “% Inhibition 10^−7M” value was determined as 18.6%. Also, the “% Inhibition Motor Activity” value in experiment [2] is 56.84%. In experiment [3], the “% Inhibition 10^−5M” value amounted to 19.0% and the “% Inhibition 10^−7M” value is 0.0%.

For `Cc1ccc(-c2nc3ccc(C)cn3c2CNC(=O)C2=NNC(=O)CC2)cc1` [Example 65, 6-Oxo-1,4,5,6-tetrahydro-pyridazine-3-carboxylic acid (6-methyl-2-p-tolyl-imidazo[1,2-a]pyridin-3-ylmethyl)-amide], in experiment [1], the “% Inhibition 10^−5M” value was 99.5% and the “% Inhibition 10^−7M” value was found to be 83.9%. In addition, the “% Inhibition Motor Activity” value in experiment [2] is 85.22%. Also, in experiment [3], the “% Inhibition 10^−5M” value came to 95.4% and the “% Inhibition 10^−7M” value is given as 39.1%.

As for `Cc1ccc(-c2nc3ccc(C)cn3c2CNC(=O)c2ccnc(Cl)c2)cc1` [Example 17, 2-Chloro-N-(6-methyl-2-p-tolyl-imidazo[1,2-a]pyridin-3-ylmethyl)-isonicotinamide], in experiment [1], the “% Inhibition 10^−5M” value was determined as 94.5% and the “% Inhibition 10^−7M” value was found to be 0.0%. Besides, the “% Inhibition Motor Activity” value in experiment [2] was 54.40%. Moreover, in experiment [3], the “% Inhibition 10^−5M” value is given as 24.4% and the “% Inhibition 10^−7M” value came out at 0.0%.
